Experiments:
Assay type in all cases: in vivo
Septoria tritici = assay: Test C: wheat leaf blotch, preventive spray on wheat seedlings, visual disease rating; settings: 40 ppm (compound number followed by *); for pest or weed control at 40 ppm: Zymoseptoria tritici, 504 h
In short: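 Wheat seedlings sprayed to run-off with compound in acetone/water plus 250 ppm surfactant at 200 ppm (≈500 g/ha), or 40 ppm where marked; inoculated with Septoria tritici next day. Held saturated at 20 °C for 48 h, then 19 days at 20 °C; disease control rated visually 0–100 versus controls.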

[1] = test system: Puccinia recondite f. sp. tritici; assay: Test B: wheat leaf rust, preventive spray on wheat seedlings, visual disease rating; settings: 40 ppm (compound number followed by *); for pest or weed control at 40 ppm: 192 h
In short: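 Wheat seedlings were sprayed to run-off with compound suspension, 200 ppm (≈500 g/ha) or 40 ppm where marked, containing surfactant in acetone/water. Inoculation with Puccinia recondita spores followed one day later, then 24 h in saturated humidity at 20° C and 7 days at 20° C. Disease control was rated visually, 0–100% versus controls.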

Septoria nodorum = assay: Test D: wheat glume blotch, preventive spray on wheat seedlings, visual disease rating; settings: 40 ppm (compound number followed by *); for pest or weed control at 40 ppm: Parastagonospora nodorum, 216 h
In short: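 Compounds in 3% acetone, then 50/50 acetone–water with 250 ppm Trem 014, sprayed to run-off at 200 ppm (500 g/ha; some at 40 ppm) one day before spore inoculation. Held 48 h saturated at 20 °C, then 7 days at 20 °C; visual rating as % disease control vs untreated (0–100).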

Botrytis cinerea = assay: Test F: tomato botrytis, preventive spray on tomato seedlings, visual disease rating; settings: 40 ppm (compound number followed by *); for pest or weed control at 40 ppm: Botrytis cinerea, 120 h
In short: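 Tomato seedlings sprayed to run-off with compound suspended in acetone/water (50/50) plus 250 ppm Trem 014, at 200 ppm (≈500 g/ha) or 40 ppm where marked. Inoculated next day with B. cinerea spores, 48 h saturated atmosphere at 20 °C, then 3 days at 24 °C. Visual rating, 0–100% disease control relative to controls.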

[2] = test system: Erysiphe graminis f. sp. tritici; assay: Test A: wheat powdery mildew, preventive spray on wheat seedlings, visual disease rating; settings: 40 ppm (compound number followed by *); for pest or weed control at 40 ppm: Blumeria graminis, 192 h
In short: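 Acetone/water (50/50) suspension with 250 ppm surfactant sprayed to run-off on wheat seedlings (200 ppm ≈ 500 g/ha); inoculated next day with E. graminis spore dust. Incubated 8 days at 20° C, then visually rated 0–100% disease control versus untreated controls; tests at 200 ppm or 40 ppm.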

Alternaria solani = assay: Test E: tomato early blight, preventive spray on tomato seedlings, visual disease rating; settings: 40 ppm (compound number followed by *); for pest or weed control at 40 ppm: Alternaria solani, 168 h
In short: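 Seedlings sprayed to run-off with compound in acetone/water plus 250 ppm Trem 014 (200 ppm ≈ 500 g/ha), inoculated with spores next day. Held 48 h saturated at 27 °C, then 5 days at 20 °C; visual rating 0–100% disease control relative to controls.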

Row | SMILES | Test C rating (% disease control) (Septoria tritici) | Test B rating (% disease control) [1] | Test D rating (% disease control) (Septoria nodorum) | Test F rating (% disease control) (Botrytis cinerea) | Test A rating (% disease control) [2] | Test E rating (% disease control) (Alternaria solani) | pest or weed control at 40 ppm (Septoria tritici) | pest or weed control at 40 ppm [1] | pest or weed control at 40 ppm (Septoria nodorum) | pest or weed control at 40 ppm (Botrytis cinerea) | pest or weed control at 40 ppm [2] | pest or weed control at 40 ppm (Alternaria solani)
1 | COc1cc(OC)cc(-c2c(C=O)cnc(C)c2-c2c(F)ccc(OC)c2F)c1 [Compound 113] | 76% | 89% | 0% | 79% | 0% | 9% |  |  |  |  |  | 
2 | CCC(O)c1cnc(C)c(-c2c(F)ccc(OC)c2F)c1-c1cc(OC)cc(OC)c1 (stereo not drawn) [Compound 115] | 98% | 96% | 0% | 98% | 93% | 99% |  |  |  |  |  | 
3 | COc1cc(OC)cc(-c2c(C(C)O)cnc(C)c2-c2c(F)ccc(OC)c2F)c1 (stereo not drawn) [Compound 116] | 95% | 89% | 0% | 99% | 94% | 99% |  |  |  |  |  | 
4 | COc1cc(OC)c(Cl)c(-c2c(C(C)=O)cnc(C)c2-c2c(F)cc(F)cc2F)c1 [Compound 118] | 96% | 100% | 0% | 100% | 100% | 99% |  |  |  |  |  | 
5 | COc1cc(OC)c(Cl)c(-c2c(C(C)(C)O)cnc(C)c2-c2c(F)cc(F)cc2F)c1 [Compound 119] | 98% | 100% | 98% | 100% | 99% | 100% |  |  |  |  |  | 
6 | COc1cc(OC)cc(-c2c(C(N)=O)cnc(C)c2-c2c(F)cc(F)cc2F)c1 [Compound 120] | 87% | 91% | 0% | 79% | 0% | 47% |  |  |  |  |  | 
7 | COc1cc(OC)cc(-c2c(-c3ccccc3)cnc(C)c2-c2c(F)cc(F)cc2F)c1 [Compound 121, 4-(3,5-dimethoxyphenyl)-2-methyl-5-phenyl-3-(2,4,6-trifluorophenyl)pyridine] |  |  |  |  |  |  | 99% | 100% | 94% | 100% | 99% | 99%
8 | COc1cc(OC)cc(-c2c(Br)cnc(C)c2-c2c(F)cc(F)cc2F)c1 [Compound 122, 5-bromo-4-(3,5-dimethoxyphenyl)-2-methyl-3-(2,4,6-trifluorophenyl)pyridine] |  |  |  |  |  |  | 99% | 99% | 0% | 100% | 98% | 0%
9 | COc1cc(OC)cc(-c2c(Cn3cc(C#N)cn3)cnc(C)c2-c2c(F)cc(F)cc2F)c1 [Compound 123] | 53% | 0% | 0% | 69% | 0% | 0% |  |  |  |  |  | 
10 | COc1cc(OC)cc(-c2c(C(C)C#N)cnc(C)c2-c2c(F)cc(F)cc2F)c1 (stereo not drawn) [Compound 125] | 96% | 99% | 90% | 100% | 96% | 99% |  |  |  |  |  | 
11 | COc1cc(OC)c(Cl)c(-c2c(-c3ccccc3F)cnc(C)c2-c2ccc(F)cc2)c1 [Compound 126] | 99% | 100% | 100% | 100% | 90% | 97% |  |  |  |  |  | 
12 | COc1cc(OC)cc(-c2c(-c3ccc(Cl)nc3)cnc(C)c2-c2c(F)cc(F)cc2F)c1 [Compound 127] | 99% | 97% | 0% | 99% | 90% | 0% |  |  |  |  |  | 
13 | COc1cc(OC)cc(-c2c(-c3cccnc3)cnc(C)c2-c2c(F)cc(F)cc2F)c1 [Compound 128] | 100% | 99% | 90% | 99% | 81% | 94% |  |  |  |  |  | 
14 | COc1cc(OC)cc(-c2c(C)cnc(C)c2-c2c(F)cc(F)cc2F)c1 [Compound 129] | 99% | 100% | 60% | 99% | 99% | 66% |  |  |  |  |  | 
15 | COc1cc(OC)cc(-c2c(-c3cnc(OC)nc3OC)cnc(C)c2-c2c(F)cc(F)cc2F)c1 [Compound 131] | 0% | 9% | 0% | 80% | 0% | 0% |  |  |  |  |  | 
16 | COc1cc(OC)cc(-c2c(-c3cccs3)cnc(C)c2-c2c(F)cc(F)cc2F)c1 [Compound 132] | 99% | 99% | 97% | 99% | 90% | 93% |  |  |  |  |  | 
17 | COc1cc(OC)c(Cl)c(-c2c(CCl)cnc(C)c2-c2c(F)cc(F)cc2F)c1 [Compound 134] | 99% | 100% | 92% | 100% | 99% | 96% |  |  |  |  |  | 
18 | COc1cc(OC)c(Cl)c(-c2c(-c3ccccc3F)cnc(C)c2-c2c(F)cc(F)cc2F)c1 [Compound 135, 4-(2-chloro-3,5-dimethoxyphenyl)-5-(2-fluorophenyl)-2-methyl-3-(2,4,6-trifluorophenyl)pyridine] |  |  |  |  |  |  | 99% | 100% | 96% | 100% | 98% | 88%
19 | COc1cc(OC)c(Cl)c(-c2c(-c3ccccc3F)cnc(C)c2-c2c(F)cc(F)cc2F)c1Cl [Compound 136] | 40% | 74% | 0% | 48% | 0% | 0% |  |  |  |  |  | 

From patent US20110092544A1, “FUNGICIDAL PYRIDINES” (E.I. DU PONT DE nemours and company, priority 2008, published 2011)
